By EC50 is commonly meant the concentration needed to bring the measured effect to its halfway point. High values mean weaker potency, low ones greater potency. Broadly, the IC50 is the concentration that inhibits the measured activity by half. As a reminder, the inhibition is the change of the read-out against control, counted positive when it falls. Low values mean a response near the control, high ones a response far below the control. As usually defined, the solubility is the dissolved amount per volume that the medium holds.

We go through 2 compounds from patent US8796303B2, “Imidazo[2,1-G][1,7]naphthyridines for treating respiratory syncytial virus infections” (Biota Scientific Management Pty Ltd., priority 2010, dated 2014).

One series relates to RSV A2. The series can be described thus: RSV antiviral CPE assay in HEp2 cells (MTT). The series is classed as cell-based, respiratory syncytial virus. To be noted: human respiratory syncytial virus, HEp-2, 120 h; HEp2 cells, RSV A2 moi ~0.01, 5 days, CPE by MTT. On the procedure:
Compounds of the invention were tested for their antiviral activity against respiratory syncytial virus. Cytopathic effect (CPE) assays were performed essentially as described in the literature (see for example Watanabe et al, 1994, J. Virological Methods, 48:257). Serial dilutions of the test compounds were made in 96 well plates. HEp2 cells (1.0×10^4 cells/well) were infected with RSV at a low multiplicity of infection (e.g. RSV A2 at an moi of ˜0.01) and added to plates to assess antiviral activity. Uninfected HEp2 cells were used to assess compound cytotoxicity. Assays were incubated for 5 days at 37° C. in a 5% CO2 atmosphere. The extent of CPE was determined via metabolism of the vital dye 3-(4,5-dimethylthiaxol-2-yl)-2,5-diphenyltetrazolium bromide (MTT). MTT (1 mg/ml) was added to each well and plates incubated for 2 hours incubation at 37° C. Wells were aspirated, iso-propanol (200 μL) was added and absorbance values read at 540/650 nm. Compound concentrations that inhibited CPE by 50% (EC50) and developed cytotoxicity (CC50) were calculated using non-linear regression analysis. The CC50 values of the compounds tested were determined to be >5000 nM.

Another series concerns the target T1, hERG ion channel (Homo sapiens, UniProt Q12809).
T1 construct: expressed in transfected cells; host or cells: CHO cells
The series can be described thus: hERG ion channel inhibition (ScreenPatch assay, IonWorks Quattro). The conditions noted are these: for IC50: CHO cells stably transfected with hERG; for inhibition at 5 min, 100 µM: human, CHO cells stably transfected with hERG cDNA. The series is classed as cell-based. On the procedure: The effects of compounds of the invention on the on hERG ion channel can be evaluated using an IonWorks Quattro™ system essentially as described in the literature (see for example Bridgland-Tayor et al, 2006, J. Pharmacological and Toxicological Methods 54: 189).
Four compound concentrations were applied to naïve cells via steel needles of a 48-channel pipettor. Each application consisted of addition of 6 μL of 2× concentrated test compounds to the total of 12 μL of final volume of the extracellular well of the Population Patch Clamp™ (PPC) planar electrode. Duration of exposure to each test compound concentration was at least five minutes.
Intracellular solution was loaded into the intracellular compartment of the PPC planar electrode. Cell suspensions (CHO cells stably transfected with hERG cDNA) are pipetted into the wells of the PPC planar electrode. After establishment of a whole-cell configuration, membrane currents were recorded using patch clamp amplifier in the IonWorks Quattro™ system. Two recordings of the ion channel currents were performed (before and 5 minutes after test compound application). hERG current was measured using a pulse pattern with fixed amplitudes (conditioning prepulse: −80 mV for 25 ms; test pulse +40 mV for 80 ms) from a holding potential of 0 mV. hERG current was measured as a difference between the peak current at 1 ms after the test step to +40 mV and the steady state current at the end of the step to +40 mV.
Data acquisition and analyses was performed using the IonWorks Quattro™ system operation software. The decrease in current amplitude after test compound application was used to calculate the percent block relative to control. A compound is considered to have a low hERG inhibition when the hERG IC50 is >500 times higher than the RSV A2 EC50. The hERG IC50 of the compounds tested was >500 times higher than the corresponding RSV A2 EC50 values.
On the technique in general: hERG is a cardiac potassium channel; its block is linked to QT prolongation.

Series [1] is described as follows: Aqueous solubility by laser nephelometry. Format: physicochemical. The conditions noted are these: kinetic from dmso stock, 1% DMSO, 30 minute incubation at 25° C., range 1.6-100. On the procedure:
Test compounds prepared in DMSO were screened in duplicate over a range of concentrations (1.6-100 ug/mL) in different aqueous media (for example pH2 or pH6.5 buffers which are relevant to the stomach and upper regions of the small intestine). Test compounds were serially diluted in 100% DMSO ranging from 10-0.16 mg/mL. These diluted compounds were then added to test plates (UV Star Griener 96 well plates) containing assay buffers with a further 1:100 dilution keeping a constant 1% DMSO concentration across the plate.

[2] abbreviates: pH 2, simulated gastric fluid, pH2 buffer, read-out: Solubility at pH2.
Where [3] appears, read: pH 6.5, aqueous buffer, pH6.5 buffer, read-out: Solubility at pH6.5.

Converted amounts (≈) assume the structure as drawn. Where two headings read alike, the source gives them in different places.

T1 sequence (Q12809 whole entry): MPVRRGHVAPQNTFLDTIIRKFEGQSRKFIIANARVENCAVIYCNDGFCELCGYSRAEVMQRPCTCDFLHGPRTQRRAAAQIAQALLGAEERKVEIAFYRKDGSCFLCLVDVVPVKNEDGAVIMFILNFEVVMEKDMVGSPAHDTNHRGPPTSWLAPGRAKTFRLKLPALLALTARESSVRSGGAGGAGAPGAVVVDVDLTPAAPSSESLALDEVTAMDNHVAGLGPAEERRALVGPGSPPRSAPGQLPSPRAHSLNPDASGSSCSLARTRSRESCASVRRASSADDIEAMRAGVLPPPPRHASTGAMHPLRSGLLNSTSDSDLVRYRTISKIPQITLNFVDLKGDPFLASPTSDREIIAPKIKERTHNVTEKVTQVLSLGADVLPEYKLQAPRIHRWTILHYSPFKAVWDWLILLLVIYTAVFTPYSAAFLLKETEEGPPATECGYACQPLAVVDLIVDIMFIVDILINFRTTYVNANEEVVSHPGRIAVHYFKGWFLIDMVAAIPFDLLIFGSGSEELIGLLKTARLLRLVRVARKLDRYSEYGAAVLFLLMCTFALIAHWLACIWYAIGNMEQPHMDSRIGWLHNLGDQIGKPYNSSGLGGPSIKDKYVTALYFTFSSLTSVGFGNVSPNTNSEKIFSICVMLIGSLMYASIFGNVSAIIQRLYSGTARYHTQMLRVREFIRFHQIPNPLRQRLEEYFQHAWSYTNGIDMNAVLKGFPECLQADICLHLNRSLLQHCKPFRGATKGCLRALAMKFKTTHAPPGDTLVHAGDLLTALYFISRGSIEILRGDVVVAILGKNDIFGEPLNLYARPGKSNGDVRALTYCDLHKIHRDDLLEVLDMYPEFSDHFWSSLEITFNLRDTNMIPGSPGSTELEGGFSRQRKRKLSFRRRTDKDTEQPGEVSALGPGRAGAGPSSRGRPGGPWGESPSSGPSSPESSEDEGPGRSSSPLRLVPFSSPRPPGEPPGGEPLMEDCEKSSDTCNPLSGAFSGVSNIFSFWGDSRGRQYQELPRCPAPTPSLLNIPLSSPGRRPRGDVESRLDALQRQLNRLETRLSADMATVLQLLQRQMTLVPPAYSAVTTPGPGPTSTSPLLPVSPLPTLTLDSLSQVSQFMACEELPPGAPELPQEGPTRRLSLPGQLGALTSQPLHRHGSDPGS

With `Cc1nocc1C(=O)N1CCN2C(=O)c3ncccc3C[C@]12c1ccc(Cl)cc1` (single isomer, unassigned) [Compound 2A], the EC50 in the series with RSV A2 came out at 0.0041 µM. Moreover, on hERG ion channel, the IC50 worked out at 130 µM and the inhibition at 5 min, 100 µM came out at 41.4%. Besides, the solubility at 30 min in series [1] (setting [2]) is 50 to 100 µg/mL (≈ 122 to 245 µM). Besides, in series [1] (setting [3]), the solubility at 30 min is over 100 µg/mL.
`Cc1nocc1C(=O)N1CCN2C(=O)c3ncccc3CC12c1ccc(Cl)cc1` (stereo not shown) [Compound 2, 10a-(4-chlorophenyl)-1-[(3-methyl-1,2-oxazol-4-yl)carbonyl]-2,3,10,10a-tetrahydroimidazo[2,1-g][1,7]naphthyridin-5(1H)-one] yielded an EC50 in the series with RSV A2 of 0.0052 µM. At hERG ion channel, this compound showed an IC50 of 99.2 µM and an inhibition at 5 min, 100 µM of 50.2%. The solubility at 30 min in series [1] (setting [2]) is 50 to 100 µg/mL (≈ 122 to 245 µM). Also, the solubility at 30 min in series [1] (setting [3]) was over 100 µg/mL.
